Patent US20240376085A1 (Janssen Pharmaceutica NV, priority 2021, published 2024)

Experiments:
[1] = molecular target: T1, IL-17A : IL-17RA binding (Homo sapiens, UniProt Q16552, K93Q); test: IL-17A(FLAG-tagged):IL-17RA(His-tagged) binding disruption Eu-HTRF assay, Protocol 1; conditions: FLAG-IL-17A 2.5 nM at 2x final concentration; average if tested more than once
T1 construct: Name: IL-17A-Flag
Summary of the method: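 IC50 came from a one-site competition fit of the acceptor/donor (665/620 nm) HTRF ratio. His-tagged IL-17RA, Eu-anti-FLAG and D2-anti-His were added after a 1 h rt compound preincubation with FLAG-tagged IL-17A dimer in PBS/0.01% Triton X-100, followed by 2 h at rt before reading.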

[2] = tested on: IL-17A-induced G-CSF production in human normal keratinocyte (NHK); test: NHK assay: IL-17A-induced G-CSF production in normal human keratinocytes; assay type: cell-based; conditions: Homo sapiens, Keratinocyte, 24 h, IL-17A 5 ng/mL, average if tested more than once
Summary of the method: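 IC50 derives from G-CSF in supernatants, quantified by HTRF from a standard curve, with CellTiter-Glo viability compared to DMSO control. Before a 24 h, 37°C culture of normal human keratinocytes at 3000–4000 cells/well, compound dilutions were preincubated 1 h at rt with human IL-17A (5 ng/mL final), with 0.2% DMSO and 5% FBS.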

T1 sequence (Q16552 with tags, fused parts or gaps K93Q): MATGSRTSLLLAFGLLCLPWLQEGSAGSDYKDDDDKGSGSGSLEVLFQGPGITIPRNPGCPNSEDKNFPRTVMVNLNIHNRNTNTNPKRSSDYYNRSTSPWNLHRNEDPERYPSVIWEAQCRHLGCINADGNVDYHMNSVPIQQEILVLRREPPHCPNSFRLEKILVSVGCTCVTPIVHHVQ

IC50 [1] | SMILES | IC50 [2]
> 100 nM | C[C@@H](NC(=O)CC(C(F)(F)F)C(F)(F)F)c1ccc2[nH]c([C@@H](NC(=O)c3cc(F)ccc3F)C3CCC(F)(F)CC3)nc2c1 [Example 130, N—((S)-(4,4-Difluorocyclohexyl)(6-((R)-1-(4,4,4-trifluoro-3-(trifluoromethyl)butanamido)ethyl)-1H-benzo[d]imidazol-2-yl)methyl)-2,5-difluorobenzamide] | > 100 nM
> 100 nM | C[C@@H](NC(=O)CCC(F)(F)F)c1ccc2nc([C@@H](NC(=O)c3cccc(C#N)c3)C3CCC(F)(F)CC3)[nH]c2c1 [Example 131, 3-Cyano-N—((S)-(4,4-difluorocyclohexyl)(6-((R)-1-(4,4,4-trifluorobutanamido)ethyl)-1H-benzo[d]imidazol-2-yl)methyl)benzamide] | > 100 nM
> 100 nM | C[C@@H](NC(=O)CC(C(F)(F)F)C(F)(F)F)c1ccc2nc([C@@H](NC(=O)c3cccc(C#N)c3)C3CCC(F)(F)CC3)[nH]c2c1 [Example 132, 3-Cyano-N—((S)-(4,4-difluorocyclohexyl)(6-((R)-1-(4,4,4-trifluoro-3-(trifluoromethyl)butanamido)ethyl)-1H-benzo[d]imidazol-2-yl)methyl)benzamide] | > 100 nM
< 50 nM | Cc1nonc1C(=O)N[C@H](c1nc2cc([C@H](NC(=O)CC3CC(F)(F)C3)C3CC3)ccc2[nH]1)C1CCC(F)(F)CC1 [Example 141, N—((S)-(5-((R)-Cyclopropyl(2-(3,3-difluorocyclobutyl)acetamido)methyl)-1H-benzo[d]imidazol-2-yl)(4,4-difluorocyclohexyl)methyl)-4-methyl-1,2,5-oxadiazole-3-carboxamide] | < 50 nM
50 to 100 nM | CC(C)n1nccc1C(=O)N[C@H](c1nc2cc([C@H](NC(=O)CC3CC(F)(F)C3)C3CC3)ccc2[nH]1)C1CCC(F)(F)CC1 [Example 142, N—((S)-(5-((R)-Cyclopropyl(2-(3,3-difluorocyclobutyl)acetamido)methyl)-1H-benzo[d]imidazol-2-yl)(4,4-difluorocyclohexyl)methyl)-1-isopropyl-1H-pyrazole-5-carboxamide] | < 50 nM
< 50 nM | O=C(CC1CC(F)(F)C1)N[C@@H](c1ccc2[nH]c([C@@H](NC(=O)c3nonc3C3CC3)C3CCC(F)(F)CC3)nc2c1)C1CC1 [Example 143, 4-Cyclopropyl-N—((S)-(5-((R)-cyclopropyl(2-(3,3-difluorocyclobutyl)acetamido)methyl)-1H-benzo[d]imidazol-2-yl)(4,4-difluorocyclohexyl)methyl)-1,2,5-oxadiazole-3-carboxamide] | < 50 nM
> 100 nM | O=C(CC1CC(F)(F)C1)N[C@@H](c1ccc2[nH]c([C@@H](NC(=O)c3nonc3OCC(F)F)C3CCC(F)(F)CC3)nc2c1)C1CC1 [Example 144, N—((S)-(5-((R)-Cyclopropyl(2-(3,3-difluorocyclobutyl)acetamido)methyl)-1H-benzo[d]imidazol-2-yl)(4,4-difluorocyclohexyl)methyl)-4-(2,2-difluoroethoxy)-1,2,5-oxadiazole-3-carboxamide] | < 50 nM
> 100 nM | Cc1nonc1C(=O)N[C@H](c1nc2cc([C@@H](NC(=O)CC3CC(F)(F)C3)C3CC3)ccc2[nH]1)C1CCC(F)(F)CC1 [Example 145, N—((S)-(5-((S)-Cyclopropyl(2-(3,3-difluorocyclobutyl)acetamido)methyl)-1H-benzo[d]imidazol-2-yl)(4,4-difluorocyclohexyl)methyl)-4-methyl-1,2,5-oxadiazole-3-carboxamide] | > 100 nM
> 100 nM | CC(C)n1nccc1C(=O)N[C@H](c1nc2cc([C@@H](NC(=O)CC3CC(F)(F)C3)C3CC3)ccc2[nH]1)C1CCC(F)(F)CC1 [Example 146, N—((S)-(5-((S)-Cyclopropyl(2-(3,3-difluorocyclobutyl)acetamido)methyl)-1H-benzo[d]imidazol-2-yl)(4,4-difluorocyclohexyl)methyl)-1-isopropyl-1H-pyrazole-5-carboxamide] | > 100 nM
50 to 100 nM | O=C(N[C@H](c1nc2cc([C@H](NC(=O)C(F)(F)CC3CC3)C3CC3)ccc2[nH]1)C1CCC(F)(F)CC1)c1nonc1C1CC1 [Example 147, 4-Cyclopropyl-N—((S)-(5-((R)-cyclopropyl(3-cyclopropyl-2,2-difluoropropanamido)methyl)-1H-benzo[d]imidazol-2-yl)(4,4-difluorocyclohexyl)methyl)-1,2,5-oxadiazole-3-carboxamide] | < 50 nM
> 100 nM | CC(C)n1nccc1C(=O)N[C@@H](CC1CC2(C1)CC(F)(F)C2)c1nc2ccc([C@H](NC(=O)CC3CC(F)(F)C3)C3CC3)cc2[nH]1 (stereo partly drawn) [Example 148, N—((S)-1-(6-((R)-Cyclopropyl(2-(3,3-difluorocyclobutyl)acetamido)methyl)-1H-benzo[d]imidazol-2-yl)-2-(6,6-difluorospiro[3.3]heptan-2-yl)ethyl)-1-isopropyl-1H-pyrazole-5-carboxamide] | > 100 nM
< 50 nM | CC(C)(OC[C@H](NC(=O)c1nonc1C1CC1)c1nc2ccc([C@H](NC(=O)CC3CC(F)(F)C3)C3CC3)cc2[nH]1)C(F)(F)F [Example 159, 4-Cyclopropyl-N—((R)-1-(6-((R)-cyclopropyl(2-(3,3-difluorocyclobutyl)acetamido)methyl)-1H-benzo[d]imidazol-2-yl)-2-((1,1,1-trifluoro-2-methylpropan-2-yl)oxy)ethyl)-1,2,5-oxadiazole-3-carboxamide] | < 50 nM
< 50 nM | CC(C)n1nccc1C(=O)N[C@@H](COC(C)(C)C(F)(F)F)c1nc2cc([C@H](NC(=O)CC3CC(F)(F)C3)C3CC3)ccc2[nH]1 [Example 160, N—((R)-1-(5-((R)-Cyclopropyl(2-(3,3-difluorocyclobutyl)acetamido)methyl)-1H-benzo[d]imidazol-2-yl)-2-((1,1,1-trifluoro-2-methylpropan-2-yl)oxy)ethyl)-1-isopropyl-1H-pyrazole-5-carboxamide] | < 50 nM
< 50 nM | CC(C)(OC[C@H](NC(=O)c1nonc1C1CC1)c1nc2cc([C@H](NC(=O)CC34CC(F)(C3)C4)C3CC3)ccc2[nH]1)C(F)(F)F [Example 166, 4-Cyclopropyl-N—((R)-1-(5-((R)-cyclopropyl(2-(3-fluorobicyclo[1.1.1]pentan-1-yl)acetamido)methyl)-1H-benzo[d]imidazol-2-yl)-2-((1,1,1-trifluoro-2-methylpropan-2-yl)oxy)ethyl)-1,2,5-oxadiazole-3-carboxamide] | < 50 nM
50 to 100 nM | [2H]C([2H])([2H])n1nccc1C(=O)N[C@@H](COC(C)(C)C(F)(F)F)c1nc2cc([C@H](NC(=O)CC3CC(F)(F)C3)C3CC3)ccc2[nH]1 [Example 167, N—((R)-1-(5-((R)-Cyclopropyl(2-(3,3-difluorocyclobutyl)acetamido)methyl)-1H-benzo[d]imidazol-2-yl)-2-((1,1,1-trifluoro-2-methylpropan-2-yl)oxy)ethyl)-1-(methyl-d3)-1H-pyrazole-5-carboxamide] | 50 to 100 nM
50 to 100 nM | CC(C)(O)c1nonc1C(=O)N[C@@H](COC(C)(C)C(F)(F)F)c1nc2cc([C@H](NC(=O)CC3CC(F)(F)C3)C3CC3)ccc2[nH]1 [Example 168, N—((R)-1-(5-((R)-Cyclopropyl(2-(3,3-difluorocyclobutyl)acetamido)methyl)-1H-benzo[d]imidazol-2-yl)-2-((1,1,1-trifluoro-2-methylpropan-2-yl)oxy)ethyl)-4-(2-hydroxypropan-2-yl)-1,2,5-oxadiazole-3-carboxamide] | > 100 nM
< 50 nM | Cc1nonc1C(=O)N[C@H](c1nc2ccc([C@H](NC(=O)CC3CC(F)(F)C3)C3CC3)cc2[nH]1)C1CCC2(CC1)CC2 (stereo partly drawn) [Example 169, N—((S)-(6-((R)-Cyclopropyl(2-(3,3-difluorocyclobutyl)acetamido)methyl)-1H-benzo[d]imidazol-2-yl)(spiro[2.5]octan-6-yl)methyl)-4-methyl-1,2,5-oxadiazole-3-carboxamide] | < 50 nM
< 50 nM | O=C(CC1CC(F)(F)C1)N[C@@H](c1ccc2nc([C@@H](NC(=O)c3nonc3C3CC3)[C@H]3CCCC(F)(F)C3)[nH]c2c1)C1CC1 [Example 170, 4-Cyclopropyl-N—((S)-(6-((R)-cyclopropyl(2-(3,3-difluorocyclobutyl)acetamido)methyl)-1H-benzo[d]imidazol-2-yl)((S)-3,3-difluorocyclohexyl)methyl)-1,2,5-oxadiazole-3-carboxamide] | < 50 nM
50 to 100 nM | O=C(CC1CC(F)(F)C1)N[C@@H](c1ccc2nc([C@@H](NC(=O)c3nonc3C3CC3)[C@@H]3CCCC(F)(F)C3)[nH]c2c1)C1CC1 [Example 171, 4-Cyclopropyl-N—((S)-(6-((R)-cyclopropyl(2-(3,3-difluorocyclobutyl)acetamido)methyl)-1H-benzo[d]imidazol-2-yl)((R)-3,3-difluorocyclohexyl)methyl)-1,2,5-oxadiazole-3-carboxamide] | < 50 nM
> 100 nM | CC(C)n1nccc1C(=O)N[C@@H](CC(C)(C)C(F)(F)F)c1nc2ccc([C@H](NC(=O)CC3CC(F)(F)C3)C3CC3)cc2[nH]1 [Example 177, N—((S)-1-(6-((R)-Cyclopropyl(2-(3,3-difluorocyclobutyl)acetamido)methyl)-1H-benzo[d]imidazol-2-yl)-4,4,4-trifluoro-3,3-dimethylbutyl)-1-isopropyl-1H-pyrazole-5-carboxamide] | < 50 nM
